Data on one compound can be found in publication PMC7279487, “Dual Target Ligands with 4-tert-Butylphenoxy Scaffold as Histamine H3 Receptor Antagonists and Monoamine Oxidase B Inhibitors” (International Journal of Molecular Sciences, 2020).

Experiment [1] deals with T1, hMAO B (Homo sapiens, UniProt P27338).
T1 construct: purchased Sigma Aldrich M7441
T1 sequence (P27338 1-520): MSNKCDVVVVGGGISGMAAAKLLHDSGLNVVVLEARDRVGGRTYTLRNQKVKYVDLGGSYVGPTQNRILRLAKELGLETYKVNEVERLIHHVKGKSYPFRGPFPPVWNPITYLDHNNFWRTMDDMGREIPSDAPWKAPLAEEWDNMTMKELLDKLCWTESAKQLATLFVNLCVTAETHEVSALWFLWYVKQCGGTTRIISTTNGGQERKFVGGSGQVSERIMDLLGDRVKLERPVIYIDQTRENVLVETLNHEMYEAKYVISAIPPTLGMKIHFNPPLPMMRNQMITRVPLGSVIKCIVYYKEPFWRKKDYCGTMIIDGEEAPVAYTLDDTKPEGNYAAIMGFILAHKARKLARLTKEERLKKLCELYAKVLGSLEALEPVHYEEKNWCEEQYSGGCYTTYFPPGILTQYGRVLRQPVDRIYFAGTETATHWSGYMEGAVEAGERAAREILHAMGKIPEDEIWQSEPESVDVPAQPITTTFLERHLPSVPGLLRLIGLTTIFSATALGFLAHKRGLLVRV
Put plainly: hMAO B reversibility studies. The format is biochemical. As to conditions: inhibitor at IC80; without preincubation; compared with safinamide and rasagiline. The procedure: Reversibility of MAO B inhibitors was tested as described previously with slight modification. Two experiments were performed simultaneously. In the first experiment, inhibitors (in concentrations corresponding to their IC80 values) were incubated with the enzyme and p-tyramine (10 μM) for 22 min (measuring fluorescence every two minutes).

Experiment [2] deals with T1, hMAO B. As to the kind of experiment: hMAO B kinetic studies (Michaelis-Menten, Lineweaver-Burk). The format is biochemical. The procedure:
Results from the kinetic experiment were used for determination of Michaelis–Menten curves (Figure 4A,C). […] From Michaelis–Menten curves, Vmax and KM values were fitted (Table 2). For both compounds, Vmax values decreased curvilinearly and KM values increased curvilinearly with the increased inhibitor concentrations.
The mode of the inhibition was tested according to the standard procedure described in Reversibility Studies using different concentrations of the substrate. […] Substrate was used in six concentrations: […], 0.1 mM, 0.5 mM, 1 mM, 1.5 mM, and 2 mM. After the experiment, velocities were calculated and put on the graph (y-axis) against the concentration of the substrate (x-axis). From the Michaelis–Menten plot Vmax, KM, and α values were calculated for different concentrations of the inhibitor. Double-reciprocal plot (Lineweaver–Burk plot) were prepared to display the data.
The α values for different modes of reversible inhibition as well as their diagnostic signature on […]
The α value for compound 9 was calculated by GraphPad Prism software from the nonlinear regression curves using following equation for mixed- […]
v = Vmax*[S] / [S]*(1+ [I]/ αKi) + KM*(1+ [I]/Ki) (1) v – velocity of enzyme reaction. Vmax - maximum velocity (at infinite substrate concentration); Ki – dissociation constant for Enzyme-Inhibitor complex (in the enzymology literature other symbols can be used such as: Ki, Kii , KEI etc.); αKi – dissociation constant for Enzyme-Substrate-Inhibitor complex (in the literature also under the symbols: Ki’, Kis and KES); KM – Michaelis-Menten constant; [I]– concentration of the inhibitor; [S] – concentration of the substrate [Ref S1].
Table S1. Relation between inhibition modality, α value, and diagnostic signature on the double-reciprocal plots (i.e Lineweaver-Burk plot) [S2].
α Inhibition modality Diagnostic signature on […]
α = 1 (inhibitor binds to free enzyme lines converge at the x-axis and enzyme-substrate complex
(inhibitor can bind to free lines converge to the left of the α > 1 enzyme and enzyme-substrate y-axis and above the x-axis complex unequally), inhibitor’s affinity is higher for free enzyme
(inhibitor can bind to free
α < 1 enzyme and enzyme-substrate lines converge to the left of the complex unequally), inhibitor’s y-axis and below the x-axis affinity is higher for the enzyme- […]
α → ∞ (inhibitor and substrate compete lines converge at the y-axis for the same site of binding) […]
α → 0 and α > 0 (inhibitor binds only to the parallel lines

Experiment [3] concerns haloperidol-induced catalepsy. Put plainly: haloperidol-induced catalepsy, crossed-leg position test. As to conditions: for Times of Observation of Catalepsy (s), 0 min / Times of Observation of Catalepsy (s), 3 min / Times of Observation of Catalepsy (s), 6 min: mean ± SEM (n = 6). It is filed as in vivo, Wistar rats. The procedure: Haloperidol (dopamine D2 antagonist)-induced catalepsy in rodents is a popular model for screening of antiparkinsonian activity of compounds [21]. Caused symptoms in animals are similar to the inability of PD patients to initiate movements. […] The reversal of catalepsy was tested for 6 min (3 times in 3 min intervals) after 1 h of haloperidol administration. As the reference compound was used MSX-3, the adenosine A2A receptor antagonist with confirmed ability to reverse catalepsy mediated by D1 and D2 receptor antagonists.
The experiments were carried out on male rats Wistar (180–220 g). Animals were housed in plastic cages in room at a constant temperature of 20 ± 2 °C with natural light–dark cycles. The animals had free access to standard pellet diet and water and were used after a minimum of 3 days of acclimatization to the housing conditions. Control and experimental groups consisted of 6 animals each. All experimental procedures were performed according to the European Union Directive of 22 September 2010 (2010/63/EU) and Polish legislation concerning animal care and use and was approved by the Local Ethics Committee for Experiments on Animals in Kraków, Poland (Resolution No. 70/2014, approval date: 20 May 2014). The examined compound was administered as the suspension in 0.5% methylcellulose in constant volume of 10 mL/kg.
Antiparkinsonian activity in catalepsy tests was performed as described in [28]. Haloperidol was administered s.c. at a dose of 0.63 mg/kg, which in 100% of control animals caused catalepsy. Tested compounds were administered i.p. at the doses 50 and 25 mg/kg body weight, 5 min after haloperidol injection. After 60 min from the injection of haloperidol, to assess the occurrence of catalepsy, the animals were placed in a forced position and the time they remained in this position was measured. Two tests were performed to determine the antiparkinsonian activity: crossed leg position test and bar test. In the first test, the animals were put on the hind paws behind the front (forced position); in the second, the animals were supported on a wooden block (the front paws were placed on a block suspended 10 cm above the ground). Then, the time that the animals remain is measured in a forced position (time was measured to a maximum of 60 s). Observation was carried out 3 times in 3-min intervals. The shortening of the time of catalepsy to the control group was adopted for the antiparkinsonian activity.

As to `CC(C)(C)c1ccc(OCCCN2CCCCC2)cc1` [DL76, 1-(3-(4-tert-butylphenoxy)propyl)piperidine], on hMAO B [1], the “type of hMAO B inhibition (reversible or irreversible)” value was “reversible”. Further, the “constant α” value at hMAO B [2] (calculated by GraphPad Prism from nonlinear regression, mixed-model inhibition) is recorded as 4.6. Besides, the “mode of hMAO B inhibition” value on hMAO B [2] (from Vmax and KM behaviour and Lineweaver-Burk plot) was “mixed mode inhibition”. In addition, the figures for the “Vmax (RFU/min)” value at hMAO B [2] (inhibitor concentration 7 nM), at hMAO B [2] (inhibitor concentration 48 nM) and at hMAO B [2] (inhibitor concentration 164 nM) were 1628 RFU/min, 1165 RFU/min and 726.3 RFU/min, respectively. The “duration of catalepsy (versus control 19.25)” value in experiment [3] (25 mg/kg body weight) amounted to 8.75; in experiment [3] (50 mg/kg body weight) it was 0.053. Moreover, the “reduction of the duration of catalepsy compared to the control group” value in experiment [3] (25 mg/kg body weight, not statistically significant) was 54.5%; in experiment [3] (50 mg/kg body weight, statistically significant), 99.7%. Moreover, the figures for the “Times of Observation of Catalepsy (s), 0 min” value in experiment [3] (25 mg/kg) and in experiment [3] (50 mg/kg) were 0.66 ± 0.68 s and 0 ± 0 s, respectively. The “Times of Observation of Catalepsy (s), 3 min” value in experiment [3] (25 mg/kg) is recorded as 10.6 ± 6.1 s; in experiment [3] (50 mg/kg), 0 ± 0 s. Further, the “Times of Observation of Catalepsy (s), 6 min” value is listed as 15.0 ± 6.7 s in experiment [3] (25 mg/kg) and 0.16 ± 0.4 s in experiment [3] (50 mg/kg).
